Holding throughout (experiment): greenhouse pre-emergence herbicidal test
Holding throughout (format): in vivo

One test has as its system Setaria faberi. The method, boiled down:
(§1)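 Seeds sown per species; compounds suspended or emulsified in water and sprayed directly after sowing, pots irrigated and covered with transparent hoods until rooting. Evaluated over 2 to 4 weeks on a 0–100 scale (100 = no emergence or complete destruction of aerial parts, 0 = normal growth).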

Another test has as its system Lolium multiflorum. The method, boiled down: (§2)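 Aqueous suspensions or emulsions sprayed immediately after sowing onto loamy sand (~3.0% humus), pots then hooded until rooting. Plants kept at 10–25 °C or 20–35 °C depending on species for 2–4 weeks. Damage scored 0 (none) to 100 (no emergence or complete destruction of aerial parts).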
The subject of another test is Alopercurus myosuroides. In a few lines: as §2
A further test relates to Echinocloa crus-galli. In a few lines:
as §1

A further test has as its system Amaranthus retroflexus. The method, boiled down: as §1
The next test deals with Apera spica-venti. The method, boiled down:
as §2

The subject of the next test is Abutilon theophrasti. The method, boiled down: as §2

Results on twelve molecules are retold here after US20240150303A1, “DIAMINOTRIAZINE COMPOUNDS” (BASF SE, priority 2021, published 2024).

On to `CCC(C)(F)c1nc(N)nc(Nc2c(C)c(Cl)cc(Cl)c2OC)n1` (racemic) [Example 102], for which the values for the herbicidal activity with Setaria faberi (62.5 g/ha), with Lolium multiflorum (62.5 g/ha) and in the test on Alopercurus myosuroides (62.5 g/ha) were 80%, 90% and 85%, respectively.
Consider `COc1c(Cl)cc(Cl)c(C)c1Nc1nc(N)nc(C(C)(F)CCl)n1` (racemic) [Example 104], for which the values for the herbicidal activity with Setaria faberi (62.5 g/ha), in the test with Lolium multiflorum (62.5 g/ha) and in the test with Alopercurus myosuroides (62.5 g/ha) were 85%, 100% and 90%, respectively.
Turning to `COc1c(Cl)cc(C)c(C)c1Nc1nc(N)nc(C(C)(C)F)n1` [Example 15], the herbicidal activity in the test with Setaria faberi (31 g/ha) is 90%; in the test on Setaria faberi (125 g/ha), 100%; in the test with Echinocloa crus-galli (125 g/ha) it was 100%; in the test on Lolium multiflorum (31 g/ha), 95%; in the test on Alopercurus myosuroides (31 g/ha), 95%; in the test with Alopercurus myosuroides (125 g/ha), 100%.
Take `CCOc1c(F)cc(F)c(Cl)c1Nc1nc(N)nc(C(C)(C)F)n1` [Example 24]: the herbicidal activity in the test with Amaranthus retroflexus (31 g/ha), with Amaranthus retroflexus (62.5 g/ha), in the test on Setaria faberi (62.5 g/ha), in the test on Echinocloa crus-galli (62.5 g/ha) and with Apera spica-venti (31 g/ha) was 100% in each case.
On to `CCOc1c(Br)cc(F)c(Cl)c1Nc1nc(N)nc(C(C)(C)F)n1` [Example 30], for which the herbicidal activity in the test on Amaranthus retroflexus (31 g/ha) is listed as 85%; with Setaria faberi (31 g/ha) it was 100%; in the test with Abutilon theophrasti (31 g/ha), 100%; with Apera spica-venti (31 g/ha), 85%; in the test on Alopercurus myosuroides (31 g/ha), 100%.
In the case of `C#CCOc1c(Br)cc(F)c(Cl)c1Nc1nc(N)nc(C(C)(C)F)n1` [Example 31], the herbicidal activity in the test on Amaranthus retroflexus (250 g/ha), in the test on Setaria faberi (31 g/ha), with Echinocloa crus-galli (250 g/ha), in the test with Abutilon theophrasti (31 g/ha), in the test with Abutilon theophrasti (250 g/ha) and in the test with Apera spica-venti (31 g/ha) was 100% in each case.
As for `COc1c(Cl)cc(Cl)c(C)c1Nc1nc(N)nc(C(C)F)n1` (stereo not shown) [Example 35], the herbicidal activity is reported as 100% in the test with Amaranthus retroflexus (62.5 g/ha); 100% with Amaranthus retroflexus (125 g/ha); 100% with Echinocloa crus-galli (62.5 g/ha); 100% with Abutilon theophrasti (62.5 g/ha); 95% with Abutilon theophrasti (125 g/ha); 100% in the test on Apera spica-venti (125 g/ha).
Regarding `COc1c(Cl)cc(Cl)c(C)c1Nc1nc(N)nc(C2(F)CCCC2)n1` [Example 36], the herbicidal activity in the test with Amaranthus retroflexus (62.5 g/ha) came to 100%; in the test with Setaria faberi (125 g/ha) it was 90%; in the test on Echinocloa crus-galli (62.5 g/ha) it was 100%; in the test with Echinocloa crus-galli (125 g/ha), 85%; with Abutilon theophrasti (62.5 g/ha), 100%; in the test with Apera spica-venti (125 g/ha), 100%.
For `COc1c(Cl)cc(Cl)c(C)c1Nc1nc(N)nc(C(C)(C)OC)n1` [Example 37], the herbicidal activity is 100% in the test on Amaranthus retroflexus (62.5 g/ha); 85% in the test on Setaria faberi (125 g/ha); 100% in the test on Echinocloa crus-galli (62.5 g/ha); 98% with Abutilon theophrasti (62.5 g/ha); 85% in the test on Abutilon theophrasti (125 g/ha); 100% with Apera spica-venti (125 g/ha).
Consider `COc1c(Br)cc(C)c(C)c1Nc1nc(N)nc(C(C)(C)F)n1` [Example 45], for which the herbicidal activity with Amaranthus retroflexus (62.5 g/ha), in the test on Setaria faberi (62 g/ha), in the test on Setaria faberi (62.5 g/ha), in the test on Echinocloa crus-galli (62.5 g/ha), in the test with Abutilon theophrasti (62 g/ha) and with Lolium multiflorum (62 g/ha) was 100% throughout.
Regarding `CC(C)(F)c1nc(N)nc(Nc2c(Cl)ccc(F)c2OCC#CC2CC2)n1` [Example 52], the herbicidal activity in the test with Amaranthus retroflexus (62 g/ha), with Setaria faberi (62.5 g/ha), in the test on Echinocloa crus-galli (62 g/ha), in the test on Echinocloa crus-galli (62.5 g/ha), in the test with Abutilon theophrasti (62 g/ha) and in the test with Apera spica-venti (62.5 g/ha) was 100% throughout.
Turning to `COc1c(Cl)cc(Br)c(C)c1Nc1nc(N)nc(C(C)(C)F)n1` [Example 60], the herbicidal activity with Amaranthus retroflexus (31 g/ha) was 100%; in the test on Amaranthus retroflexus (62 g/ha), 100%; in the test with Setaria faberi (31 g/ha) it was 98%; in the test with Setaria faberi (62 g/ha), 100%; in the test on Abutilon theophrasti (62 g/ha), 100%; in the test on Apera spica-venti (31 g/ha), 95%.
